Assay results published in PMC11770746 (Journal of Medicinal Chemistry, 2025).

How the values were obtained:
[1] = tested on: A2780 ovarian carcinoma cells; experiment: Antiproliferative MTT assay, 72 h; format: cell-based, human; conditions: A2780, 72 h treatment
Description: (§4) After 72 h of exposure, the cell biomass was determined by 3-(4,5-dimethylthiazol-2-yl)-2,5-diphenyl tetrazolium bromide (MTT) (Sigma-Aldrich) staining, and the absorptions were calculated as the delta of two measurements of the same well at wavelengths 570 and 690 nm. IC50 values were determined as the concentration that caused 50% inhibition of cell proliferation compared to an untreated control. The results were calculated as the mean values of three independent experiments.
(§5) PC9 human non-small-cell lung carcinoma cells, A375 human malignant melanoma cells, and CT26 WT murine colon carcinoma cells were maintained in DMEM (high glucose, no glutamine/sodium pyruvate) supplemented with L-glutamine solution (4 mM) (2% v/v), 10% (v/v) heat-inactivated fetal bovine serum (South American origin, European grade), and 1% (v/v) penicillin–streptomycin solution (containing penicillin G sodium salt: 10 000 units/mL and streptomycin sulfate: 10 mg/mL) and were passaged twice a week.

[2] = tested on: A2780cisR cisplatin-resistant ovarian carcinoma cells; experiment: Antiproliferative MTT assay, 72 h; format: cell-based, human; conditions: 72 h treatment
Description: as §4, §5

A375 melanoma cells = experiment: Antiproliferative MTT assay, 72 h; format: cell-based, human
Description: as §4, §5

[3] = tested on: PC9 non-small-cell lung cancer cells; experiment: Antiproliferative MTT assay, 72 h; format: cell-based, human; conditions: PC9, 72 h treatment
Description: as §4, §5

[4] = tested on: CT26 murine colon cancer cells; experiment: Antiproliferative MTT assay, 72 h; format: cell-based; conditions: CT26, 72 h treatment
Description: as §4, §5

all cancer cell lines = experiment: Antiproliferative MTT assay, summary over the panel; format: cell-based; conditions: all cancer cell lines of the panel, 72 h
Description: as §4

[5] = tested on: murine CT26 colon cancer model; experiment: In vivo inhibition of tumor growth; conditions: CT26 s.c. in BALB/c mice, i.p. every other day up to 4 doses, equimolar: cisplatin 3, paclitaxel 8.5, combination 3 + 8.5, cisPt(Pac)(OH) and its micelles 12 mg/kg
[6] = Platinum accumulation in organs and tumor by ICP-MS (CT26 study); format: in vivo, mice; conditions: ICP-MS at end of the CT26 experiment
Description: Four-week-old female BALB/cAnNTac mice weighing 16–18 g were purchased from InVivos (Singapore). The animals were housed in Comparative Medicine (CM)-holding units at the National University of Singapore in a pathogen-free environment at constant temperature in a 12/12 h light/dark cycle environment. The mice were acclimatized for 3 days and given access to food and water ad libitum. The mouse colon carcinoma cells CT26 (1 × 10^5 cells in 100 μL of sterile PBS) were subcutaneously injected into the right flank of the mice. The administration of tested compounds was started when tumors became palpable (volume of ∼30 mm^3) on day 13. Subsequently, the animals were separated into 5 groups (n = 6 each) and injected i.p. with different compounds every other day up to 4 doses. Control mice were injected ip with 100 μL of sterile saline. The animals were controlled for pain and/or distress development, and the body weight and tumor size were closely monitored. All animals were alert and responsive during the whole experiment. The mice were euthanized when the diameter of the tumor reached 1.5 cm or upon development of ulceration. The tumor and organs (liver, kidney, and spleen) were collected […].
(§1) Samples were weighed and mineralized with highly pure 70% nitric acid (Pt: ≤0.01 μg kg^–1, TraceSELECT Ultra, Sigma Chemical Co.) for 3 h. Afterward, solutions were completely dried at 110 °C and 1000 μL of 1% HNO3 was added. The platinum content of each sample was measured by ICP-MS. The calibration curve was obtained using known concentrations of standard solutions purchased from Sigma Chemical Co.

kidney = conditions: mouse, in vivo
From the text: At the end of the experiments, mice were euthanized, and the tumor, spleen, liver, and kidneys were isolated and analyzed in terms of platinum content by ICP-MS (Figure 4F).
All of the kidney (left kidney) samples were flash-frozen immediately after weighing for cryosections for the histopathological evaluation using H&E staining technique. The tissues were embedded in the OCT compound and 10 μm thick sections were cut and placed onto glass slides using the Leica CM3050 S Cryostat. The slides were dried in a desiccator for approximately 1 h before rinsing in water. Sections are ready for staining immediately after rinse. The slides were stained with H&E (Hematoxylin and eosin) using Leica Autostainer XL. Then, the slides were dehydrated through ascending series of ethanol to xylene before being coverslipped using Leica Coverslipper CV5030. The slides were imaged using the LABOMED Opti CX biological microscope. At least two sections of each kidney sample were stained and 5–10 images were taken for each section under 10× and 40× magnifications. The images were analyzed for histopathological changes by two pathologists in a blinded manner.

mice [7] = experiment: Mechanical allodynia, von Frey assay; conditions: for mechanical allodynia (in words): compared with the untreated mice
Description: (§2) Von Frey, hot plate, acetone evaporation, and ocular aperture ratio studies were carried out in Balb/c mice according to reported methods.[3] […] Final injection volume was 150 μL. Afterward, tests were carried out 1, 2, and 3 weeks post first injection.
8-week-old Balb/c mice were purchased from Envigo (Israel). Pain thresholds were assessed by observing withdrawal responses to mechanical stimulation of the plantar skin by using von Frey filaments. The mice were placed on a grid and allowed to accustom to the new environment for at least half an hour. The hind paw was touched vertically on the plantar surface with the tip of the filament. Once the fiber bends, the force applied is the maximum, making the repetitions reproducible. Hairs calibrated for forces between 0.008 and 2 g were applied 10 times each in ascending order of force at 5 s intervals to both hind paws. Sharp and quick leg withdrawal or immediate jumping in response to a touch with the hairs was considered as a withdrawal response. Paw movements associated with locomotion were not counted as the withdrawal response. The threshold of withdrawal response was defined when 6 out of 10 applications elicited pain responses. each group contained six animals.

mice [8] = experiment: Ongoing pain, eye-closing ratio; format: in vivo; conditions: i.p. days 1, 3, 5
Description: Finally, we assessed whether the treatment with cisPt(OAc)2 or cisPt(Pac)(OH) prevents chemotherapy-induced ongoing pain, by assessing the eye-closing ratio.[53]−[55] The eye-closing ratio test was carried out prior to conducting the induced pain experiments. The eye-closing ratio was obtained by dividing the distance between the edges of the upper and lower eyelids by the length of the canthus (horizontal distance across the eye), where a value of 0 was given to completely closed eyes (indicating pain), and a value of 1 was given to fully open eyes (lack of pain).
as §2
The raw data for the ongoing pain was obtained by taking 3–5 photographs of each of the awake (not immobilized) mice and used such that the position of the eyelids in relation to the eye was clearly visible. The data were analyzed in a blind fashion by using the imaging software, ImageJ, to measure the length between the internal and external canthus (x) and the distance between the edge of the upper and lower eyelids (y). Finally, the ratio of y/x was calculated, and a value between 0 and 1 was obtained for each photo, where 0 is equivalent to the eye completely closed and 1 is equivalent to the eye completely open. The values obtained were an average of the values of the six animals in each group.

[9] = Stability of the Pt(IV) compounds in RPMI medium, monitored by HPLC; format: physicochemical; conditions: pH = 7, 37 °C, HPLC peak area
Description: The stability of the Pt(IV) compounds was measured in RPMI medium, at pH = 7 and 37 °C, by monitoring the peak area of the prodrugs as a function of time.
Pt(IV) complexes were dissolved in 1% DMSO and RPMI medium at pH 7.4, and kept at 37 °C. Stability half-lives, t1/2, were calculated by linear fitting of ln(At/A0) vs time (t), where At and A0 are the integrated peak areas by HPLC […].

[10] = Reduction by 10 equiv of ascorbic acid, monitored by HPLC; format: physicochemical; conditions: 10 eq. ascorbic acid, pH = 7, 37 °C
Description: To verify that the Pt(IV) prodrugs are activated by reduction, we incubated them with 10 eq. of ascorbic acid at pH = 7 at 37 °C and monitored by HPLC the reduction of the peak of the parent compound as a function of time.
The half-lives (t1/2) of all compounds were obtained after linear fitting of ln(At/A0) vs time (t) by considering a pseudo-first-order rate equation (At = A0e^–kt), where A0 and At are the integrated areas of HPLC peaks of the respective complexes at t = 0 and at time t, respectively, and k (slope) is the rate constant. Then, t1/2 was calculated by utilizing the equation t1/2 = 0.693/k.

mice [11] = format: in vivo; conditions: acetone test; compared with cisplatin, paclitaxel, or their 1:1 co-administration
Description: (§3) The sensitivity to noxious heat was assessed by placing the mice on a hot plate (54 ± 1 °C) and measuring the latency (s), the time until the mice began licking their paws, shaking, or jumping to avoid the heat.
as §2
The test was carried out on a mesh floor, and acetone was dabbed on the plantar surface of the hind paw. Sensitivity to cold was recorded by the duration of nocifensive responses such as brisk withdrawal, flick of the paw, repeated flicking of the paw, repeated flicking of the hind paw, and licking of the paw. each group contained six animals.

mice [12] = format: in vivo; conditions: hot plate 54 ± 1 °C; compared with cisplatin, paclitaxel, or their 1:1 co-administration
Description: as §3, §2
Unrestrained mouse was placed on a metal surface that was maintained at a constant temperature (54 ± 1 °C) and the response latency, which is the time taken to observe a nocifensive behavior, was recorded. These behaviors include fore paw withdrawal or licking, hind paw withdrawal or licking, stamping, leaning posture, and jumping. each group contained six animals. If no nocifensive behaviors were observed, the animals were removed from the hot plate after 30 s to prevent tissue damage.

[13] = Body weight changes in the CT26 efficacy study (general toxicity); format: in vivo, mice; conditions: i.p., equimolar doses
Description: Four-week-old female BALB/cAnNTac mice weighing 16–18 g were purchased from InVivos (Singapore). The animals were housed in Comparative Medicine (CM)-holding units at the National University of Singapore in a pathogen-free environment at constant temperature in a 12/12 h light/dark cycle environment. The mice were acclimatized for 3 days and given access to food and water ad libitum. The mouse colon carcinoma cells CT26 (1 × 10^5 cells in 100 μL of sterile PBS) were subcutaneously injected into the right flank of the mice. The administration of tested compounds was started when tumors became palpable (volume of ∼30 mm^3) on day 13. Subsequently, the animals were separated into 5 groups (n = 6 each) and injected i.p. with different compounds every other day up to 4 doses. Control mice were injected ip with 100 μL of sterile saline. The animals were controlled for pain and/or distress development, and the body weight and tumor size were closely monitored. […] The mice were euthanized when the diameter of the tumor reached 1.5 cm or upon development of ulceration.

[14] = Platinum accumulation in the DRG by ICP-MS; format: in vivo, mice; conditions: day 7 after injections on days 1, 3, 5
Description: To explore whether the differences in the behavioral tests between cisplatin, cisplatin + paclitaxel, and cisPt(Pac)(OH) correlate with platinum accumulation in the DRG, we quantified the platinum in the DRG.
Afterward, on days 7–10, animals from each group were anesthetized using isoflurane and decapitated. Thereafter, DRG were removed and placed in DDW at room temperature.
as §1

Row | Compound | IC50 [1] | IC50 [2] | IC50 (A375 melanoma cells; A375, 72 h treatment) | IC50 [3] | IC50 [4] | IC50 values (in words) (all cancer cell lines) | Inhibition of Tumor Growth (TGI) [5] | levels of Pt in the kidneys [6] | platinum levels in the tumor [6] | mechanical allodynia (in words) (mice [7]; von Frey) | ongoing (spontaneous) pain (mice [8]) | t1/2 RPMI 1640 [9] | t1/2 10 equiv Asc [10] | cold allodynia (mice [11]) | thermal hyperalgesia (mice [12]) | other results
1 | N.N.[Cl][Pt][Cl] [cisplatin] | 1180 ± 130 nM | 16200 ± 3140 nM | 1910 ± 620 nM | 5290 ± 1750 nM | 5890 ± 1190 nM | low μM | 41% | high levels of Pt | rather similar | persistent reduction in the withdrawal threshold | substantial spontaneous pain |  |  |  |  | histopathological changes of the kidney tubules (kidney): focal tubular necrosis; reduction of withdrawal threshold (mice [7]; von Frey, compared with untreated mice): about 95%
2 | CC(=O)[O][Pt]([Cl])([Cl])[O]C(C)=O.N.N [cisPt(OAc)2] |  |  |  |  |  |  |  |  |  |  | did not induce any ongoing pain | 120 h | 7.8 h | significantly reduced cold allodynia | significantly reduced | 
3 | CC(=O)[O][Pt]1([O]C(C)=O)[O]C(=O)C(=O)[O]1.NC1CCCCC1N [Oxali(OAc)2] |  |  |  |  |  |  |  |  |  |  |  | 742 h | 63 h |  |  | neuropathic pain by withdrawal thresholds to mechanical stimuli (mice [7]; male and female mice, 5.19 mg/kg i.p. days 1, 3, 5): did not induce neuropathic pain
4 | ctc-[Pt(NH3)2(Pac)(OH)Cl2] [cisPt(Pac)(OH)] | 4.5 ± 2 nM | 5.9 ± 0.1 nM | 18 ± 3 nM | 6 ± 1 nM | 406 ± 106 nM | low nM | 65% | much lower levels | rather similar |  | did not induce any ongoing pain | 35 h | 0.16 h | significantly reduced cold allodynia | significantly reduced | body weight loss compared to the control [13]: did not exhibit any substantial weight loss; kidney toxicity (creatinine and histopathology) (kidney): lower kidney toxicity; platinum levels in the DRG [14]: lower than after treatment with cisplatin or the co-treatment with cisplatin and paclitaxel
5 | CC(=O)O[C@H]1C(=O)[C@@]2(C)[C@H]([C@H](OC(=O)c3ccccc3)[C@]3(O)C[C@H](OC(=O)[C@H](O)[C@@H](NC(=O)c4ccccc4)c4ccccc4)C(C)=C1C3(C)C)[C@]1(OC(C)=O)CO[C@@H]1C[C@@H]2O [paclitaxel] |  |  |  |  |  | low nM | 27% |  |  | persistent reduction in the withdrawal threshold | substantial spontaneous pain |  |  |  |  | IC50 ([1]; Homo sapiens): 2.2 ± 1 nM; IC50 ([2]; Homo sapiens): 3 ± 1 nM; IC50 (A375 melanoma cells; Homo sapiens, A-375, A375, 72 h treatment): 14 ± 4 nM; IC50 ([3]; Homo sapiens): 4.5 ± 2 nM; IC50 ([4]; Mus musculus): 384 ± 109 nM
